Data as given in US7566697B2, “Carboxy protection strategies for acidic C-terminal amino acids in chemical ligation of oligopeptides” (Amylin Pharmaceuticals, Inc., priority 2002, dated 2009).
Residues, ends and D or L forms follow the SMILES beside them. Primed or numbered codes have the meaning given here. No end group written: not given here. *: point of attachment. diMeOPac = (2',4'-dimethoxy)phenacyl ester on the Asp side chain, COc1ccc(C(=O)C*)c(OC)c1; Fmoc = O=C(OCC1c2ccccc2-c2ccccc21)*; X1 = CC(O*)C(=O)c1ccccc1; OPac′ = phenacyl ester; X2 = ClC(Cl)(Cl)CO*

Columns and labels:
[1] = buffer, pH 6.5
Experimental: The C-terminal unprotected peptide (1.5 equivalent) and the N-terminal peptide (1 equivalent) were solubilized in freshly degassed 6M guanidinium hydrochloride, 0.2 M sodium phosphate, pH 7.5 buffer at a concentration of 2.5 mM each. After addition of 1% thiophenol and 1% benzyl mercaptan the pH was adjusted to 6.5 (or different thiols concentration or pH as reported in the text). Aliquots of this solution were treated with equal volumes of BME for 5 minutes and then with 10% TCEP for 10 minutes to completely hydrolyse any thiol adduct before HPLC analysis. Ligation reaction analysis was conducted using a gradient starting from 10% of B with a gradient slope of 1.66% of B per minute. Base line resolution of the different isomerization product was achieved using a gradient starting at 20% of B and with an increase of 0.33% B.

[2] = target: SV8 protease (Staphylococcus aureus, UniProt P0C1U8); conditions: 1 unit/20 μg, 24 hours at 37° C.
Experimental: Peptides were digested using the enzyme SV8 protease. The peptides, solubilized to a final 5 mM concentration in 0.1 M NH4HCO3 and 0.3% BME, were digested by adding the enzyme solution (250 unit/ml), keeping the enzyme/peptide ratio of 1 unit/20 μg. The reaction was stopped after 24 hours at 37° C. by treatment with equal volumes of 10% TCEP, and extent of digestion assayed by RP-HPLC. Digested fragments were characterized by ESI-MS.

half-life in the ligation condition [1] | Compound | Hydrolysis t1/2 [1] [h] | digestion by SV8 protease [2]
500 h | CC(=O)N[C@@H](CC(=O)OC(C)C(=O)c1ccccc1)C(=O)N[C@@H](Cc1ccc(O)cc1)C(=O)N[C@@H](C)C(=O)N[C@@H](CCCCN)C(=O)N[C@@H](Cc1ccc(O)cc1)C(=O)N[C@@H](C)C(=O)N[C@@H](CCCCN)C(=O)N[C@@H](CC(C)C)C(=O)O (some centres unmarked) [OMop, Ac-D(OMop)YAKYAKL] (Ac-D(X1)YAKYAKL-OH) | 9.9 | –
less than 2 hours | CC(C)C[C@H](NC(=O)[C@H](CCCCN)NC(=O)[C@H](C)NC(=O)[C@H](Cc1ccc(O)cc1)NC(=O)[C@H](CCCCN)NC(=O)[C@H](C)NC(=O)[C@H](Cc1ccc(O)cc1)NC(=O)[C@H](CC(=O)OCC(Cl)(Cl)Cl)NC(=O)OCC1c2ccccc2-c2ccccc21)C(=O)O [Troc, Fmoc-D(Troc)YAKYAKL] (Fmoc-D(X2)YAKYAKL-OH) | 1.5 | –
– | Ac-D(OPac)YAKYAKL (Ac-D(OPac′)YAKYAKL) | 1.2 | –
– | Ac-D(diMeOPac)YAKYAKL [OdiMeOPac] | 3.8 | –
– | LYRAD(β)CSYUFL [product 6] | – | unaffected by the enzyme
– | LYRAE(γ)CSYRFL [product 7] | – | unaffected by the enzyme
